The structures appear in SMILES notation.

The test system of one test is S. epidermitis. Nature of the test: MIC determination (agar dilution or broth microdilution), activity against S. epidermitis. As to conditions: Comparison: MIC values for the actives taken alone. The test is classed as cell-based. Details: unit not given beside the values. How it is done:
(§1) Synergistic activity of mixtures of 4-Isopropyl-3-methylphenol an alpha bisabolol with regard to S. aureus and S. epidermidis was determined. […]
(§2) Antimicrobial activity was evaluated by determining the Minimum Inhibitory Concentration (MIC) representing the lowest concentration of a chemical which prevents visible growth of a bacterium.
(§3) The MIC values were determined by preparing solutions of the chemical in vitro at increasing concentrations, incubating the solutions with the separate batches of cultured bacteria, and measuring the results using agar dilution or broth microdilution. Results have been graded into susceptible (often called sensitive), intermediate, or resistant to a particular antibiotic by using a cutoff point. Cut off points are agreed upon values, published in guidelines of a reference body, such as the U.S. Clinical and Laboratory Standards Institute (CLSI), the British Society for Antimicrobial Chemotherapy (BSAC) or the European Committee on Antimicrobial Susceptibility Testing (EUCAST).
On the technique in general: Agar dilution tests growth on a series of plates holding different concentrations.

In the next test the test system is S. aureus. Nature of the test: MIC determination (agar dilution or broth microdilution), activity against S. aureus. As to conditions: Comparison: MIC values for the actives taken alone. More on the design: unit not given beside the values. In kind it is cell-based. How it is done: as §1, §2, §3
Test [1] has as its system mold growth on moist alfalfa hay. The note with it: moist alfalfa hay preservation, Agronomy Journal 47, 64-69, 1955; cited from earlier work.

With `Cc1cc(O)ccc1C(C)C` [4-Isopropyl-3-methylphenol], the MIC with S. epidermitis and in the test with S. aureus was 250 throughout.

In the case of `CC(=O)c1ccc(O)cc1` [4-hydroxyacetophenone], in test [1], the “prevention of mold growth” value was “not prevent mold growth”.

`CC(C)=CCC[C@](C)(O)[C@@H]1CC=C(C)CC1` [alpha-Bisabolol]: the MIC in the test on S. epidermitis and in the test with S. aureus was 125 throughout.

The values above are taken from patent US20220168198A1, “AN ANTIMICROBIAL MIXTURE” (SYMRISE AG, priority 2019, published 2022).
